Test [1] has as its target T1, human, citrated, platelet-rich plasma (Homo sapiens, UniProt P05106+P08514).
T1 construct: aggregating human, citrated, platelet-rich plasma; endogenous in cells; host or cells: human platelets in citrated platelet-rich plasma
In words: Test (a): inhibition of ADP stimulated platelet aggregation (Born). The note with it: ADP induced aggregation of human platelet-rich plasma; for Kb: read-out: Test (a): pA2 value indicating potency of platelet aggregation inhibition (converted). It counts as cell-based. The gist of the method:
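pA2 calculated by comparing ADP EC50-type (50% response) values in presence and absence of compound, averaged across concentrations (generally 10-^5 M to 10-^10 M). Aggregation (Born) induced by ADP in citrated human platelet-rich plasma, giving dose-response curves.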

Test [2] addresses T2, purified human platelet fibrinogen receptor (GPIIb/IIIa) (Homo sapiens, UniProt P05106+P08514).
T2 construct: is isolated from human platelet lysates; from tissue
In words: Test (b): GPIIb/IIIa ELISA, inhibition of biotinylated fibrinogen binding. The note with it: purified human platelet GPIIb/IIIa, ELISA; for IC50: read-out: Test (b): pIC50 (-log(IC50)), 50% inhibition of biotinylated fibrinogen binding to GPIIb/IIIa (converted). Put shortly: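 Inhibition of biotinylated fibrinogen ([…]) binding to immobilised human platelet fibrinogen receptor, purified by KYGRGDS peptide affinity chromatography, was measured after 2 h at 30 °C. Readout: streptavidin–biotin-HRP colour with TMB at […]; value expressed as pIC50.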
(In general: In an ELISA, binding on a coated surface is turned into a signal by an enzyme label.)

Structures can show the parent of a compound that is named as a salt.

T1 sequence (P08514 32-887 limits assumed): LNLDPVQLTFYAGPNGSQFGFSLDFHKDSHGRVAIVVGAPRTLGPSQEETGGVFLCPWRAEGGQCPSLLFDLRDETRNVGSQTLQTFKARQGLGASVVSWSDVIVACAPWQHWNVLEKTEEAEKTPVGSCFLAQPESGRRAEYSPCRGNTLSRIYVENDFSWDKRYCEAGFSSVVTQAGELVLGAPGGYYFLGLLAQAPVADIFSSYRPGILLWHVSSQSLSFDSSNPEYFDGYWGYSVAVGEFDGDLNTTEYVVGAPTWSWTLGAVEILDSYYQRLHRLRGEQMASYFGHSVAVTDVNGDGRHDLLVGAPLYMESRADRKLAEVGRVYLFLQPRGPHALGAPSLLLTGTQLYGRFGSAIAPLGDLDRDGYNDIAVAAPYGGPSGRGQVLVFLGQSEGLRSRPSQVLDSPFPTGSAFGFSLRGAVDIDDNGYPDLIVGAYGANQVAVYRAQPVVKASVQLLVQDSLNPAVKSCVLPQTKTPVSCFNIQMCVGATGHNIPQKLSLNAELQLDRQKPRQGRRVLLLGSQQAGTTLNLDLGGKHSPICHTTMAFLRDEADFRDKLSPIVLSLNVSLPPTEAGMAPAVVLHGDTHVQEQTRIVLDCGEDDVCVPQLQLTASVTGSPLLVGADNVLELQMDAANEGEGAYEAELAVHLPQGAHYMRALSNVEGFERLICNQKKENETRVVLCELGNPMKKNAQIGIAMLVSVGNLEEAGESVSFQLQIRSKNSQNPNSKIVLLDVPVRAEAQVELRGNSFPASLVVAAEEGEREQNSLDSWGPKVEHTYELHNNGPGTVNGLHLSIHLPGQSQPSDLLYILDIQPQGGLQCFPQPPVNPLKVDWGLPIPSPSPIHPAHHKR
T1 sequence (P08514 891-1039 limits assumed): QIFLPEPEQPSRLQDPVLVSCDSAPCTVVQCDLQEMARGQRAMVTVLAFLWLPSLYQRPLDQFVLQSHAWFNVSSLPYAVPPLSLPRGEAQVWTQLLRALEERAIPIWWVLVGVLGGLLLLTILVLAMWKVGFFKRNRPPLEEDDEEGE
T1 sequence (P05106 27-788): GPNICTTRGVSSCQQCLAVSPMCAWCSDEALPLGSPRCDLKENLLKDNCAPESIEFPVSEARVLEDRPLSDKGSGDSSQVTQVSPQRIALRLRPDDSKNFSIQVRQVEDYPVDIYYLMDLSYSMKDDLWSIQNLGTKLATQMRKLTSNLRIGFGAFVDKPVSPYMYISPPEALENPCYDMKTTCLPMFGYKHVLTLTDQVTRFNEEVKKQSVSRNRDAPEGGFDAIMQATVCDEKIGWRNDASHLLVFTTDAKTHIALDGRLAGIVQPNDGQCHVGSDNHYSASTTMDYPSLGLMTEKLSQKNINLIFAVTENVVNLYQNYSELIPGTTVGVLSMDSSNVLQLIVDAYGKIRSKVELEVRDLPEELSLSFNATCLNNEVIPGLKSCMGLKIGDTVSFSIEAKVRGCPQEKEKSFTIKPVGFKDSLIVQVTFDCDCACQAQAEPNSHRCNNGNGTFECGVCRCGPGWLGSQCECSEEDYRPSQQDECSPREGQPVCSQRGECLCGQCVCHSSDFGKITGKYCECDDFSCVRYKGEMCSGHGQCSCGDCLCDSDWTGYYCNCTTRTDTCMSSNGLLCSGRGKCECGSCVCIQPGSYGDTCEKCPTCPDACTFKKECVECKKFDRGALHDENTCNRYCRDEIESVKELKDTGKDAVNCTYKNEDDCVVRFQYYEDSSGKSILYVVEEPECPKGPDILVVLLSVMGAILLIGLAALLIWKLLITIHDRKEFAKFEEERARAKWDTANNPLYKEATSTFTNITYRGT
T2 sequence (P08514 32-887 limits assumed): as the sequence (P08514 32-887 limits assumed) above
T2 sequence (P08514 891-1039 limits assumed): as the sequence (P08514 891-1039 limits assumed) above
T2 sequence (P05106 27-788): as the sequence (P05106 27-788) above

Regarding `COC(=O)CNC(=O)COc1ccc(C(=O)CN2CCN(c3ccncc3)CC2)cc1` [Example 146, Methyl N-[4-[2-[4-(4-pyridyl)piperazin-1-yl]acetyl]phenoxyacetyl]glycinate], the Kb in test [1] was 7940 nM. For the same molecule, the IC50 in test [2] is 6310 nM.

For the molecule `COC(=O)[C@H](Cc1ccc(OCCC2CCN(c3ccncc3)CC2)cc1)NS(C)(=O)=O` [Example 85, Methyl 2-S-(methsulphonylamino)-3-[4-[2-[1-(4-pyridyl)piperidin-4-yl]ethoxy]phenyl]propionate], the Kb in test [1] was 1580 nM. For the same molecule, in test [2], the IC50 was 251 nM.

`CCCCS(=O)(=O)N[C@@H](Cc1ccc(OCCC2CCN(c3ccncc3)CC2)cc1)C(=O)OC` [Example 35, Methyl 2-S-(n-butylsulphonylamino)-3-[4-[2-[1-(4-pyridyl)piperidin-4-yl]ethoxy]phenyl]propionate]: the Kb in test [1] is 398 nM. The IC50 in test [2] is 63.1 nM.

Turning to `O=C(O)COc1ccc(C(=O)CN2CCN(c3ccncc3)CC2=O)cc1` [Example 62, 4-[2-[4-(4-Pyridyl)piperazin-2-one-1-yl]acetyl]phenoxyacetic acid], the Kb in test [1] is 2.51 to 12.6 nM. In addition, the IC50 in test [2] is 7.94 nM.

With `COC(=O)C(Oc1ccc(C(=O)CN2CCN(c3ccncc3)CC2)cc1)C(=O)OC` [Example 140, Dimethyl 4-[2-[4-(4-pyridyl)piperazin-1-yl]acetyl]phenoxymalonate], the Kb in test [1] was 1580 nM. Moreover, the IC50 in test [2] was 501 nM.

On to `CCOC(=O)CCCOc1ccc(N2CCN(c3ccncc3)CC2)cc1` [Example 50, Ethyl 4-[4-[4-(4-pyridyl)piperazin-1-yl]phenoxy]butyrate], for which the Kb in test [1] was 794 to 1000 nM. Further, the IC50 in test [2] was above 100000 nM.

In the case of `COC(=O)CSc1ccc(C(=O)CN2CCN(c3ccncc3)CC2)cc1` [Example 9, Methyl 4-[2-[4-(4-pyridyl)piperazin-1-yl]acetyl]phenylthioacetate], the Kb in test [1] was 12600 nM. In test [2], the IC50 is 50100 nM.

As for `CCOC(=O)CCCCOc1cccc(N2CCN(c3ccncc3)CC2)c1` [Example 228, Ethyl 3-[4-(4-pyridyl)piperazin-1-yl]phenoxypentanoate], in test [1], the Kb was 10000 nM. Besides, in test [2], the IC50 is above 100000 nM.

As to `COC(=O)COc1ccc(C(=O)CN2CCN(c3ccncc3)CC2=O)cc1` [Example 61, Methyl 4-[2-[4-(4-pyridyl)piperazin-2-one-1-yl]acetyl]phenoxyacetate], in test [1], the Kb is 31.6 nM. For the same molecule, the IC50 in test [2] was 200 nM.

With `Cc1cc(OCC(=O)O)ccc1C(=O)CN1CCN(c2ccncc2)CC1` [Example 125, 4-[2-[4-(4-Pyridyl)piperazin-1-yl]acetyl]-3-methylphenoxyacetic acid, dihydrochloride], the Kb in test [1] was 158 nM. Besides, the IC50 in test [2] was 15.8 nM.

On to `CCCCS(=O)(=O)N[C@H](Cc1ccc(OCC2CCN(c3ccncc3)CC2)cc1)C(=O)OC` [Example 100, Methyl 2-R-(n-butylsulphonylamino)-3-[4-[1-(4-pyridyl)piperidin-4-yl]methoxyphenyl]propionate], for which the Kb in test [1] is 39800 nM. Further, in test [2], the IC50 was 3980 nM.

As for `Cc1ccc(S(=O)(=O)N[C@@H](Cc2ccc(OCCC3CCN(c4ccncc4)CC3)cc2)C(=O)O)cc1` [Example 90, Lithium 2-S-(4-methylphenylsulphonylamino)-3-[4-[2-[1-(4-pyridyl)piperidin-4-yl]ethoxy]phenyl]propionate], in test [1], the Kb is 10 nM. Moreover, in test [2], the IC50 was 3.16 nM.

As to `O=C(O)CCNC(=O)c1ccc(N2CCN(c3ccncc3)CC2)nc1` [Example 70, 3-[6-[4-(4-Pyridyl)piperazin-1-yl]pyrid-3-ylcarboxamido]propionic acid], in test [1], the Kb was 79.4 nM. For the same molecule, in test [2], the IC50 was 15.8 nM.

With `COC(=O)CC(NC(=O)c1ccc(N2CCN(c3ccncc3)CC2)cc1)c1ccccc1` (stereo not shown) [Example 58, Methyl 3-[4-[4-(4-pyridyl)piperazin-1-yl]benzamido]-3-phenylpropionate], the Kb in test [1] is 3160 nM. The IC50 in test [2] was 39800 nM.

Turning to `COC(=O)COc1ccc(C(=O)CN2CCN(c3ccncc3)CC2)cc1OC` [Example 5, Methyl 4-[2-[4-(4-pyridyl)piperazin-1-yl]acetyl]-2-methoxyphenoxyacetate], in test [1], the Kb is 1000 nM. For the same molecule, in test [2], the IC50 was 1000 nM.

In the case of `O=C(O)CCNC(=O)c1ccc(N2CCN(c3ccncc3)CC2)cc1` [Example 57, 3-[4-[4-(4-Pyridyl)piperazin-1-yl]]benzamidopropionic acid], the Kb in test [1] is 25.1 nM. The IC50 in test [2] is 25.1 nM.

Regarding `O=C(N[C@@H](Cc1ccccc1)C(=O)O)c1ccc(N2CCN(c3ccncc3)CC2)cc1` [Example 191], in test [1], the Kb is above 100000 nM. Further, the IC50 in test [2] was 3980 nM.

For `C=CC(COc1ccc(N2CCN(c3ccncc3)CC2)cc1)CC(=O)O` (racemic) [Example 204, RS-4-[4-[4-(4-Pyridyl)piperazin-1-yl]phenoxy]-3-vinylbutyric acid, sodium salt], the Kb in test [1] was 79.4 nM. For the same molecule, the IC50 in test [2] is 1.26 nM.

With `O=C(O)COc1ccc(C(=O)CN2CCN(c3ccncc3)CC2)cc1OCC(=O)O` [Example 4, 2,2'-[4-[2-[4-(4-Pyridyl)piperazin-1-yl]acetyl]phenylene-1,2-dioxy]diaceticacid], the Kb in test [1] is 1.26 nM. Moreover, the IC50 in test [2] is 0.794 nM.

Take `CCOC(=O)C1CCN(C(=O)CN2CCN(c3ccncc3)CC2)CC1` [Example 27, Ethyl 1-[2-[4-(4-pyridyl)piperazin-1-yl]acetyl]piperidin-4-carboxylate]: the Kb in test [1] was 7940 nM. For the same molecule, the IC50 in test [2] is 2510 nM.

With `O=C(O)C[C@H](NC(=O)CNC(=O)CN1CCN(c2ccncc2)CC1)C(=O)N[C@@H](Cc1ccccc1)C(=O)O` [Example 40], in test [1], the Kb was 79.4 nM. Further, the IC50 in test [2] was 20 nM.

As to `CCCCS(=O)(=O)NC(CC(=O)OC)c1ccc(OCC2CCN(c3ccncc3)CC2)cc1` (stereo not shown) [Example 97, Methyl 3-(n-butylsulphonylamino)-3-[4-[1-(4-pyridyl)piperidin-4-yl]-methoxyphenyl]propionate], the Kb in test [1] is 3980 nM. In test [2], the IC50 is 3160 nM.

In the case of `CCn1cc(C(=O)O)c(=O)c2ccc(N3CCN(c4ccncc4)CC3)cc21` [Example 65, Ethyl-4-[4-(4-pyridyl)piperazin-1-yl]-4-quinolon-3-ylcarboxylic acid], in test [1], the Kb is 6310 nM. Further, the IC50 in test [2] is 2510 nM.

On to `CCCCC(=O)N[C@@H](Cc1ccc(OCC2CCN(c3ccncc3)CC2)cc1)C(=O)OC` [Example 92, Methyl 2-S-(pentanoylamino)-3-[4-[1-(4-pyridyl)piperidin-4-yl]methoxyphenyl]propionate], for which the Kb in test [1] is 2000 nM. Also, the IC50 in test [2] was 79.4 nM.

With `O=C(O)C[C@H](NC(=O)c1ccc(N2CCN(c3ccncc3)CC2)cc1)C(=O)NCCc1ccccc1` [Example 192, (S)-3-[N-[2-Phenenthyl]carboxamido]-3-[4-[4-(4-pyridyl)piperazin-1-yl]]-benzamidopropionic acid], the Kb in test [1] is above 100000 nM. The IC50 in test [2] is 251 nM.

Take `CC(C)(C)OC(=O)COC1CCN(C(=O)CN2CCN(c3ccncc3)CC2)CC1` [Example 106]: in test [1], the Kb was 15800 nM. Moreover, the IC50 in test [2] was 39800 nM.

With `COC(=O)C(N)CCOc1ccc(N2CCN(c3ccncc3)CC2)cc1` (racemic) [Example 213, RS Methyl 2-amino-4-[4-[4-(4-pyridyl)piperazin-1-yl]phenoxy]butyrate], the Kb in test [1] was 200 nM. For the same molecule, in test [2], the IC50 is 501 nM.

Regarding `O=C(O)COC1CCN(C(=O)CN2CCN(c3ccncc3)CC2)CC1` [Example 32, 2-[1-[2-[4-(4-Pyridyl)piperazin-1-yl]acetyl]piperidin-4-yloxy]acetic acid], in test [1], the Kb was 200 nM. Further, the IC50 in test [2] is 50.1 nM.

Consider `O=C(O)COc1ccc(C(=O)CC2CCN(c3ccncc3)CC2)cc1` [Example 174, 4-[2-[1-(4Pyridyl)piperidin-4-yl]acetyl]phenoxyacetic acid hydrochloride], for which, in test [1], the Kb was 158 to 398 nM. The IC50 in test [2] is 5.01 to 10 nM.

For `O=C(O)COc1ccc(C(=O)NCC2CCN(c3ccncc3)CC2)cc1` [Example 168], the Kb in test [1] is 794 nM. For the same molecule, in test [2], the IC50 is 398 nM.

Regarding `CS(=O)(=O)NCc1ccc(NC(=O)C2CCN(c3ccncc3)CC2)cc1` [Example 182], the Kb in test [1] is 7940 nM. For the same molecule, the IC50 in test [2] was 20000 nM.

For `O=C(O)CCCCN1CCN(c2ccncc2)CC1` [Example 196, 5-[(4-Pyridyl)piperazin-1-yl]pentanoic acid, dihydrochloride salt], the Kb in test [1] was 100000 nM. For the same molecule, the IC50 in test [2] is 6310 nM.

As for `COC(=O)COc1ccc(C(=O)CN2CCN(c3ccncc3)CC2)c2ccccc12` [Example 117], the Kb in test [1] is 12600 nM. For the same molecule, in test [2], the IC50 is 3980 nM.

In the case of `Cc1ccc(S(=O)(=O)NCC2CCN(C(=O)CN3CCN(c4ccncc4)CC3)CC2)cc1` [Example 222, N-[1-[2-[4-(4-Pyridyl)piperazin-1-yl]acetyl]piperidin-4-ylmethyl]-4-methylphenylsulphonamide], in test [1], the Kb is 316 nM. The IC50 in test [2] is 2510 nM.

In the case of `O=C(O)COc1ccc(CCN2CCN(c3ccncc3)CC2)cc1` [Example 148, 4-[2-[4-(4-Pyridyl)piperazin-1-yl]ethyl]phenoxyacetate acid dihydrochloride], the “Test (a): pA2 value indicating potency of platelet aggregation inhibition” value in test [1] was determined as 7.3. Moreover, the “Test (b): pIC50 (-log(IC50)), 50% inhibition of biotinylated fibrinogen binding to GPIIb/IIIa” value in test [2] was determined as 7.5.
